Measured values as given in patent US12630606B2, “Peptide deficient-MHC class I/chaperone compositions and methods” (priority 2018, dated 2026).
Blank lines part the entries; values can stand above or below the substance they belong to. Where no end group is shown, it is not given here.

How the values were obtained:
H-2D^d/TAPBPR complex = H-2D^d/TAPBPR complex (Mus musculus, UniProt P01900)
H-2D^d = H-2D^d (Mus musculus, UniProt P01900); conditions: cited from earlier work
H-2L^d/TAPBPR complex = H-2L^d/TAPBPR complex (Mus musculus, UniProt P01897); assay: SEC TAPBPR binding with LC-MS peptide occupancy; conditions: QL9 with 10 mM Gly-Phe dipeptide
[1] = Nano differential scanning fluorimetry (nanoDSF); format: physicochemical; conditions: FIG. 18B
Method: 10 uL of each sample was loaded on the Prometheus NT.48 instrument (NanoTemper) using the high sensitivity capillaries. NanoDSF measurements are performed using a temperature ramp rate of 1° C./min from 25° C. to 95° C. and an LED intensity of 20%. Data is analyzed using the PR Control software (NanoTemper). Melting temperatures (Tm values) correspond to the inflection points of the first derivative of the 330/350 nm fluorescence ratio. Experiments were performed in duplicates and the shaded areas (FIG. 18B) are representative of the error.

Substance: GPGRAFVTI [gP18-I10]
peptide occupancy in the presence of TAPBPR (H-2D^d/TAPBPR complex): dissociates in the presence of TAPBPR
increase in the peptide off-rate relative to full-length P18-I10 (H-2D^d): 100 fold

Substance: QLSPFPFDL [QL9, reference compound]
peptide occupancy in the presence of TAPBPR (H-2L^d/TAPBPR complex): could obtain empty H-2L^d:TAPBPR complexes

Substance: TAPBPR: TAPasin Binding Protein Related chaperone, recombinant luminal domain
Tm (nanoDSF inflection point) [1]: 52.5 °C

peptide occupancy in the presence of TAPBPR (H-2L^d/TAPBPR complex): remained bound
Substance: _PNVNIHNF (not fully specified (N-terminus); printed as _PNVNIHNF) [gp29]
